pIC50: −log10 of the molar value.
Assays:
[1] = target: T1, human Nav1.8 ion channel stably expressed by CHO cells (Homo sapiens, UniProt Q9Y5Y9); assay: Blocking activity on sodium ion channel 1.8 (Nav1.8), manual whole-cell patch clamp; type: cell-based; conditions: Nav1.8 peak sodium current; for inhibition at 0.01 µM: 10 nM compound, read-out: Inhibition rate (%) @ 10 nM; for inhibition at 0.1 µM: 100 nM compound, read-out: Inhibition rate (%) @ 100 nM
T1 construct: expressed in transfected cells
T1 sequence (Q9Y5Y9 whole entry): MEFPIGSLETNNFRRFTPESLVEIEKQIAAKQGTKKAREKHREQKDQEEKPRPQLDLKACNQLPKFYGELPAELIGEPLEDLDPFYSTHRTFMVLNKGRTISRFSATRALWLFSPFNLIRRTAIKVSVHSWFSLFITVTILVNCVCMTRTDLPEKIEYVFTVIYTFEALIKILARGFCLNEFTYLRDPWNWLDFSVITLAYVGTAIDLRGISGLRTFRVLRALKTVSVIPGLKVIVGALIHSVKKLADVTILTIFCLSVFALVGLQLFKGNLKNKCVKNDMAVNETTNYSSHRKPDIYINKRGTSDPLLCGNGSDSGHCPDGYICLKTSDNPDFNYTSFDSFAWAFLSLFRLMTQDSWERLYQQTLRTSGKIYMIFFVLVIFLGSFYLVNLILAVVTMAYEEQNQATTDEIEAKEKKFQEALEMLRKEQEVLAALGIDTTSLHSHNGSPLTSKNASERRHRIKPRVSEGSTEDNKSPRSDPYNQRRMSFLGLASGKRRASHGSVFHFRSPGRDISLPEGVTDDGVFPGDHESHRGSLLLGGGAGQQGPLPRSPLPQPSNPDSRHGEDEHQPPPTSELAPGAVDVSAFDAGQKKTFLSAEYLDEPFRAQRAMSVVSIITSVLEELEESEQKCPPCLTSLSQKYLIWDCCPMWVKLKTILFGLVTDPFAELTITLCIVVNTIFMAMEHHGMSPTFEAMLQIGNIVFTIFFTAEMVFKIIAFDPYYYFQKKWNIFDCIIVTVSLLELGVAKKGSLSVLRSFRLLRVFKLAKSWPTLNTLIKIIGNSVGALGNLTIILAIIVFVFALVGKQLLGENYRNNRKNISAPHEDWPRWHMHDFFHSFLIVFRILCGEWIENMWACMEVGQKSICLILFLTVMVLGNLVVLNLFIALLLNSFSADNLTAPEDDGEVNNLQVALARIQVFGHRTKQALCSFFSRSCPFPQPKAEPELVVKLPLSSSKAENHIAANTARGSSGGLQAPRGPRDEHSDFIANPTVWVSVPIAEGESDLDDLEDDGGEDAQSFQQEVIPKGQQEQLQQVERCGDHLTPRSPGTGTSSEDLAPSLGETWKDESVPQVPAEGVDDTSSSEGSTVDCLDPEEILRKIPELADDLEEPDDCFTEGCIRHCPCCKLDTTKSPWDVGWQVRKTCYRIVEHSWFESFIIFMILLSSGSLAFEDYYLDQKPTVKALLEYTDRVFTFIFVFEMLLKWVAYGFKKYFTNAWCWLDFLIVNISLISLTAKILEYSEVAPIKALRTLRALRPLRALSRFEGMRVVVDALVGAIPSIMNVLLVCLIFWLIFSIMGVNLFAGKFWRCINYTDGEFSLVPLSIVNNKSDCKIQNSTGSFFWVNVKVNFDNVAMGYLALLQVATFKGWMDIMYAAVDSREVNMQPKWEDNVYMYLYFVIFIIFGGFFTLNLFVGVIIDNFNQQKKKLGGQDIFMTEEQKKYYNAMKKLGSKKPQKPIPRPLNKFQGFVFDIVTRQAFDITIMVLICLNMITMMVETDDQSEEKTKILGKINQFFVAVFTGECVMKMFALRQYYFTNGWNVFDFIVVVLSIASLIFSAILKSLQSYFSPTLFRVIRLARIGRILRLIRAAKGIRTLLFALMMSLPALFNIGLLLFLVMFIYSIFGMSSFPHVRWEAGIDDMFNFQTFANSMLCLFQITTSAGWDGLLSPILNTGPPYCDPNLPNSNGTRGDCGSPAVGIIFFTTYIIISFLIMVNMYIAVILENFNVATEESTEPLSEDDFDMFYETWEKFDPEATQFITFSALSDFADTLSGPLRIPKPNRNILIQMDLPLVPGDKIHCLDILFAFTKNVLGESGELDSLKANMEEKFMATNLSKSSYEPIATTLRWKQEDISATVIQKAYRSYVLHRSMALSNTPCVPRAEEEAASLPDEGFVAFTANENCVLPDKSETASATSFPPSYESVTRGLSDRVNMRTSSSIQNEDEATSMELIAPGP
Procedure: Test Example A: Blocking activity of the compound of the present invention on sodium ion channel 1.8 (Nav1.8)
Experimental objective: to determine the rate of inhibition of the compound on the human Nav1.8 ion channel stably expressed by CHO cells
The compound was dissolved using DMSO to prepare a stock solution. The stock solution was diluted with an extracellular fluid (140 mM NaCl, 3.5 mM KCl, 1 mM MgCl2, 2 mM CaCl2), 10 mM D-glucose, 10 mM HEPES, 1.25 mM NaH2PO4 2H2O, pH=7.4 (NaOH)) to particular concentrations to be used in manual patch clamp testing.
A capillary glass tube was stretched to form a recording electrode using a microelectrode puller. A microelectrode manipulator was operated under an inverted microscope to contact the recording electrode to the cells, and negative suction pressure was applied to form a GQ seal. Once the GQ seal was formed, rapid capacitance compensation was performed, and then the negative pressure was continued to break the cell membrane, forming a whole cell recording mode. Slow capacitance was compensated for, and the film capacitance and series resistance were recorded. No leakage compensation was applied. Once the Nav1.8 current recorded in the whole cell was stabilized, administration of the compound was started. The compound was allowed to act at the first concentration for 5 min (or until the electric current stabilized), and then the second concentration was tested. For each test compound, two concentrations were tested.
The voltage stimulation protocol for whole-cell patch clamp recording of Nav1.8 sodium current was as follows: once the whole cell seal was formed, the cellular voltage was clamped at −120 mV for 30 ms. The clamping voltage was depolarized to 0 mV for 50 ms, and then the voltage was restored to −50 mV (for the specific voltage, reference was made to the half inactivation voltage in IV testing) for 8 s. […] Data acquisition was repeated every 20 s. The effect of the compound on the peak value of the sodium current was observed. The experimental data was collected by an EPC-10 amplifier (HEKA) and was stored in PatchMaster (HEKA) software.

Nav1.8 = Nav1.8 (Homo sapiens, UniProt Q9Y5Y9); conditions: read-out: TTX IC50 (nm); cited from earlier work
Nav1.8, sequence (Q9Y5Y9 whole entry, looked up): as the sequence (Q9Y5Y9 whole entry) above

Nav1.3 = Nav1.3 (Homo sapiens, UniProt Q9NY46); conditions: read-out: TTX IC50 (nm); cited from earlier work
Nav1.3, sequence (Q9NY46 whole entry, looked up): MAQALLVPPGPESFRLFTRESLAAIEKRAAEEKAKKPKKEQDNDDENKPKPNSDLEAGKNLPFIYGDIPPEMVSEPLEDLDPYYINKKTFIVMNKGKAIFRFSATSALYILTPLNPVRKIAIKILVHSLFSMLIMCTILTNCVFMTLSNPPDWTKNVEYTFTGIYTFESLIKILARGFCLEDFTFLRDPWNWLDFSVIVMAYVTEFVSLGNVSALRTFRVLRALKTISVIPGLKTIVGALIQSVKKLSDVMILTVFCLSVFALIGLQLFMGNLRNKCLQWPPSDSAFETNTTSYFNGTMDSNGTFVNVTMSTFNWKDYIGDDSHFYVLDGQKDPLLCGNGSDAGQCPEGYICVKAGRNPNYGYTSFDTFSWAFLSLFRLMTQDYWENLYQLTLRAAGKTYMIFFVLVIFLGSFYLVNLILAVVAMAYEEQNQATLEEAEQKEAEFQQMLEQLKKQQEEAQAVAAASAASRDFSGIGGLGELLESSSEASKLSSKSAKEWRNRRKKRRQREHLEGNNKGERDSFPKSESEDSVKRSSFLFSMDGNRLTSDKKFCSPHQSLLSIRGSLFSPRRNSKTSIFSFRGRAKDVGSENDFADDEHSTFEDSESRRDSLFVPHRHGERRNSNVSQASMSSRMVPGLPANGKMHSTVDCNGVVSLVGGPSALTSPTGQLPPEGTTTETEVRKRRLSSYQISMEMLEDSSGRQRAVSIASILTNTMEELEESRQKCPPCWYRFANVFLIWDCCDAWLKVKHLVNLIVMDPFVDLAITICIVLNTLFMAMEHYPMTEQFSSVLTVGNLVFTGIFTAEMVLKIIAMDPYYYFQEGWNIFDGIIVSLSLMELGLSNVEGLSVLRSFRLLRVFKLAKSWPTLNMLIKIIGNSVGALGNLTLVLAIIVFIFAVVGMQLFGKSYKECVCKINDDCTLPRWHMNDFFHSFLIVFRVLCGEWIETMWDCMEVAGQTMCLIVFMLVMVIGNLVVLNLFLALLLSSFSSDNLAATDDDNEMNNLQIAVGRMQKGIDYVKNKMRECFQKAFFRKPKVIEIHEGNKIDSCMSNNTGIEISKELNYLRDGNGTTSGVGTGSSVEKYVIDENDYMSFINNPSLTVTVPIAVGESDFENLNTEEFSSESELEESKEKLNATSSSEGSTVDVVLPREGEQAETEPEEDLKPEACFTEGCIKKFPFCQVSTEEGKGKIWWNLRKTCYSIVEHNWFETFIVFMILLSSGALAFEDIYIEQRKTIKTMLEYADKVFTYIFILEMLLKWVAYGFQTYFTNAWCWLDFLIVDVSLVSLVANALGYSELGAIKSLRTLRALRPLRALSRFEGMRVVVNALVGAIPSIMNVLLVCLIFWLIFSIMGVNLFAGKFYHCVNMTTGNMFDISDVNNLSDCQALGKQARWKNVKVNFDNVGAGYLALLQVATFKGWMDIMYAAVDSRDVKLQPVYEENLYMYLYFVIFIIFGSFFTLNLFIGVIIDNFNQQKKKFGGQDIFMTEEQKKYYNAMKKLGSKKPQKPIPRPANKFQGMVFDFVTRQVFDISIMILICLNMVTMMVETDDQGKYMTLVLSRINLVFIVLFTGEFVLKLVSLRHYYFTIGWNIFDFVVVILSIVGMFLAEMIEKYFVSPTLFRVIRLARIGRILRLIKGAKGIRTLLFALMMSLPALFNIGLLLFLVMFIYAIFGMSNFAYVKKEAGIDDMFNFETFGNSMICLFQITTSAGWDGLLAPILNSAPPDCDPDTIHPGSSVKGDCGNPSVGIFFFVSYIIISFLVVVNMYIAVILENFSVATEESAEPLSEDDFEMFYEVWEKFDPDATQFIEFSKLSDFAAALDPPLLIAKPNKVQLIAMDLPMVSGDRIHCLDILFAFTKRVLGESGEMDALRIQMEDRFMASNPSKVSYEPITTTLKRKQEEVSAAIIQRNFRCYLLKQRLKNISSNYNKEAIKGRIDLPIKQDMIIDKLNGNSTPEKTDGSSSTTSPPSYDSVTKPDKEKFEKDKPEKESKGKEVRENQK

[2] = Pharmacokinetic evaluation by intravenous injection or gavage in rats; conditions: Sprague-Dawley (SD), rat, in vivo
Procedure: Test Example B: Quantitative pharmacokinetic evaluation of the compound of the present invention administered by intravenous injection or gavage in rats.
The present inventors conducted pharmacokinetic evaluation of the compound of the present invention in rats.
The compound of the present invention was administered to the test animals as a solution of 5% DMSO+5% tween 80+90% physiological saline solution. The animals were fasted for 12 hours prior to the administration, but had free access to water. For the intravenous injection administration group, the administration dose was 1 mg/kg; for gavage administration, the administration dose was 10 mg/kg. Following administration, blood was intravenously collected from the animals (approximately 0.3 mL of blood) at the following time points: 0.083 h, 0.25 h, 0.5 h, 1.0 h, 2.0 h, 4.0 h, 8.0 h, and 24 h. The blood collection tubes previously had EDTA-K2 added thereto as an anticoagulant. Each blood sample was centrifuged at 6800 g at a low temperature for 6 minutes, and plasma was collected and stored at −80° C.
Sample preparation for LC-MS/MS assay: 20 μL of the plasma sample was subjected to protein precipitation using 400 μL of methanol containing 100 ng/mL of IS (tolbutamide). The mixture was vortexed for 1 minute and then centrifuged at 18000 g for 7 minutes. 400 μL of the supernatant was transferred to a 96-well plate. 2 μL of the supernatant were subjected to LC-MS/MS analysis.

Row | Structure (SMILES) | inhibition at 0.01 µM [1] | inhibition at 0.1 µM [1] | also measured
1 | CCN1CC[C@@H](NS(=O)(=O)c2cc(NC(=O)c3cc(Cl)c(C(F)(F)F)cc3Oc3ccc(F)cc3C)ccn2)C1 [Compound 11] | 80.5% | 97.8% | 
2 | CCCN1CC[C@@H](NS(=O)(=O)c2cc(NC(=O)c3cc(Cl)c(C(F)(F)F)cc3Oc3ccc(F)cc3C)ccn2)C1 [Compound 12, (R)-5-chloro-2-(4-fluoro-2-methylphenoxy)-N-(2-(N-(1-propylpyrrolidin-3-yl)sulfamoyl)pyridin-4-yl)-4-(trifluoromethyl)benzamide] | 71.5% | 97.9% | 
3 | Cc1cc(F)ccc1Oc1cc(C(F)(F)F)c(Cl)cc1C(=O)Nc1ccnc(S(=O)(=O)NC[C@H]2CCNC2)c1 [Compound 7, (S)-5-chloro-2-(4-fluoro-2-methylphenoxy)-N-(2-(N-(pyrrolidin-3-ylmethyl)sulfamoyl)pyridin-4-yl)-4-(trifluoromethyl)benzamide] | 91.5% | 97.1% | 
4 | Cc1cc(F)ccc1Oc1cc(C(F)(F)F)c(Cl)cc1C(=O)Nc1ccnc(S(=O)(=O)N[C@@H]2CCNC2)c1 [Compound 2, (R)-5-chloro-2-(4-fluoro-2-methylphenoxy)-N-(2-(N-(pyrrolidin-3-yl)sulfamoyl)pyridin-4-yl)-4-(trifluoromethyl)benzamide] | 84.5% | 100% | 
5 | NC1=N[C@H](O)[C@H]2[C@H]3O[C@]4(O)O[C@@H]([C@@H](O)[C@@]2(N1)[C@@H]4O)[C@]3(O)CO [TTX, tetrodotoxin] |  |  | pIC50 (Nav1.8): 4.51; pIC50 (Nav1.3): 8.40
6 | Cc1cc(F)ccc1Oc1cc(C(F)(F)F)c(Cl)cc1C(=O)Nc1ccnc(S(=O)(=O)N[C@H]2CCNC2)c1 [Compound 3, (S)-5-chloro-2-(4-fluoro-2-methylphenoxy)-N-(2-(N-(pyrrolidin-3-yl)sulfamoyl)pyridin-4-yl)-4-(trifluoromethyl)benzamide] | 92% | 98.4% | 
7 | Cc1cc(F)ccc1Oc1cc(C(F)(F)F)c(Cl)cc1C(=O)Nc1ccnc(S(=O)(=O)NC[C@@H]2CCNC2)c1 [Compound 6, (R)-5-chloro-2-(4-fluoro-2-methylphenoxy)-N-(2-(N-(pyrrolidin-3-ylmethyl)sulfamoyl)pyridin-4-yl)-4-(trifluoromethyl)benzamide] | 71.3% | 98.1% | 
8 | CS(=N)(=O)c1cc(NC(=O)c2cc(Cl)c(C(F)(F)F)cc2N2CCCC(F)(F)CC2)ccc1F (stereo not drawn) [Compound 27, 5-chloro-2-(4,4-difluoroazepan-1-yl)-N-(4-fluoro-3-(S-methyliminosulfonyl)phenyl)-4-(trifluoromethyl)benzamide] | 75.1% | 96% | 
9 | [2H]C([2H])([2H])Oc1cc(OC(F)(F)F)ccc1Oc1cc(C(F)(F)F)c(Cl)cc1C(=O)Nc1ccnc(S(C)(=N)=O)c1 (stereo not drawn) [Compound 15, 5-chloro-2-(2-(methoxy-d3)-4-(trifluoromethoxy)phenoxy)-N-(2-(S-methyliminosulfonyl)pyridin-4-yl)-4-(trifluoromethyl)benzamide] | 86.3% | 99.3% | 
10 | Cc1cc(F)ccc1Oc1cc(C(F)(F)F)c(Cl)cc1C(=O)Nc1ccnc(S(C)(=N)=O)c1 (stereo not drawn) [Compound 13, 5-chloro-2-(4-fluoro-2-methylphenoxy)-N-(2-(S-methyliminosulfonyl)pyridin-4-yl)-4-(trifluoromethyl)benzamide] | 52.4% | 97.2% | AUC(0-t) ([2]; iv, 1 mg/kg): 2240 ng·h/mL; Cmax ([2]; iv, 1 mg/kg): 496 ng/mL; Tmax ([2]; iv, 1 mg/kg): 0.08 h; Vd ([2]; iv, 1 mg/kg): 2.48 L/kg; clearance ([2]; iv, 1 mg/kg): 7.52 mL/min/kg; half-life ([2]; iv, 1 mg/kg): 3.88 h; AUC(0-t) ([2]; po, 10 mg/kg): 18600 ng·h/mL; Cmax ([2]; po, 10 mg/kg): 1840 ng/mL; Tmax ([2]; po, 10 mg/kg): 2.67 h; bioavailability ([2]; po, 10 mg/kg): 83.2%; half-life ([2]; po, 10 mg/kg): 3.85 h
11 | [2H]C([2H])([2H])Oc1cc(F)ccc1Oc1cc(C(F)(F)F)c(Cl)cc1C(=O)Nc1ccc(F)c(S(C)(=N)=O)c1 (stereo not drawn) [Compound 24, 5-chloro-2-(4-fluoro-2-(methoxy-d3)phenoxy)-N-(4-fluoro-3-(S-methyliminosulfonyl)phenyl)-4-(trifluoromethyl)benzamide] | 83.9% | 99% | 
12 | Cc1cc(F)ccc1Oc1cc(C(F)(F)F)c(Cl)cc1C(=O)Nc1ccnc(S(=O)(=O)NC2CCNCC2)c1 [Compound 4, 5-chloro-2-(4-fluoro-2-methylphenoxy)-N-(2-(N-(piperidin-4-yl)sulfamoyl)pyridin-4-yl)-4-(trifluoromethyl)benzamide] | 84.9% | 96.1% | 
13 | CNCCNS(=O)(=O)c1cc(NC(=O)c2cc(Cl)c(C(F)(F)F)cc2Oc2ccc(F)cc2C)ccn1 [Compound 1, 5-chloro-2-(4-fluoro-2-methylphenoxy)-N-(2-(N-(2-(methylamino)ethyl)sulfamoyl)pyridin-4-yl)-4-(trifluoromethyl)benzamide] | 59.8% | 91.3% | 
14 | CS(=N)(=O)c1cc(NC(=O)c2cc(Cl)c(C(F)(F)F)cc2N2CCCC(F)(F)CC2)ccn1 (stereo not drawn) [Compound 17, 5-chloro-2-(4,4-difluoroazepan-1-yl)-N-(2-(S-methyliminosulfonyl)pyridin-4-yl)-4-(trifluoromethyl)benzamide] | 71.9% | 96.5% | 
15 | CCN1CC[C@H](NS(=O)(=O)c2cc(NC(=O)c3cc(Cl)c(C(F)(F)F)cc3Oc3ccc(F)cc3C)ccn2)C1 [Compound 8] | 68.6% | 93% | 
16 | [2H]C([2H])([2H])Oc1cc(OC(F)(F)F)ccc1Oc1cc(C(F)(F)F)c(Cl)cc1C(=O)Nc1ccc(F)c(S(C)(=N)=O)c1 (stereo not drawn) [Compound 25, 5-chloro-N-(4-fluoro-3-(S-methyliminosulfonyl)phenyl)-2-(2-(methoxy-d3)-4-(trifluoromethoxy)phenoxy)-4-(trifluoromethyl)benzamide] | 82% | 95.5% | 
17 | Cc1cc(F)ccc1Oc1cc(C(F)(F)F)c(Cl)cc1C(=O)Nc1cnnc(S(C)(=N)=O)c1 (stereo not drawn) [Compound 20, 5-chloro-2-(4-fluoro-2-methylphenoxy)-N-(6-(S-methyliminosulfonyl) 76 yridazine-4-yl)-4-(trifluoromethyl)benzamide] | 46.8% | 86.5% | 
18 | Cc1cc(F)ccc1Oc1cc(C(F)(F)F)c(Cl)cc1C(=O)Nc1ccnc(S(=O)(=O)N[C@H]2CCN(CCF)C2)c1 [Compound 10, (S)-5-chloro-2-(4-fluoro-2-methylphenoxy)-N-(2-(N-(1-(2-fluoroethyl)pyrrolidin-3-yl)sulfamoyl)pyridin-4-yl)-4-(trifluoromethyl)benzamide] | 46.2% | 83.4% | 
19 | CCCN1CC[C@H](NS(=O)(=O)c2cc(NC(=O)c3cc(Cl)c(C(F)(F)F)cc3Oc3ccc(F)cc3C)ccn2)C1 [Compound 9, (S)-5-chloro-2-(4-fluoro-2-methylphenoxy)-N-(2-(N-(1-propylpyrrolidin-3-yl)sulfonamido)pyridin-4-yl)-4-(trifluoromethyl)benzamide] | 60.1% | 95.2% | 
20 | Cc1cc(F)ccc1Oc1cc(C(F)(F)F)c(Cl)cc1C(=O)Nc1ccnc(S(=O)(=O)NCC2CCNCC2)c1 [Compound 5, 5-chloro-2-(4-fluoro-2-methylphenoxy)-N-(2-(N-(piperidin-4-ylmethyl)sulfamoyl)pyridin-4-yl)-4-(trifluoromethyl)benzamide] | 78.5% | 96.8% | 
